Measured values: patent US20120142771A1, “BIPHENYLACETAMIDE DERIVATIVE” (Dainippon Sumitomo Pharma Co., Ltd., priority 2008, published 2012)

Legend:
[1] = test system: maximum electroshock seizure (MES) model; assay: Maximum electroshock seizure (MES) model test; type: in vivo, mice; conditions: for responders at 100 mg/kg / responders at 50 mg/kg: Mus musculus, po, 1 h, Slc: ddY male mice, 3 per group, electrical stimulation 1 hour after administration, inhibition of hind limb extension, read-out: MES (positive number/tested number) (converted); for responders at 100 mg/kg: 100 mg/kg oral; for responders at 50 mg/kg: 50 mg/kg oral
Method in brief: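 Male Slc: ddY mice (3 per group, 20-30 g) received compound orally at 50 or 100 mg/kg; controls got 0.5% tragacanth or 0.5% methylcellulose. One hour post-dose, corneal stimulation (60 Hz, 25 mA, 0.2 s) induced tonic hind-limb extensor convulsion.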

[2] = test system: subcutaneously pentetrazol-injected model (scPTZ); assay: Subcutaneously pentetrazol-injected model (scPTZ) test; type: in vivo, mice; conditions: pentetrazol 85 mg/kg s.c. after 1 hour; for responders at 100 mg/kg / responders at 50 mg/kg: Mus musculus, po, 1 h, Slc: ddY male mice, 3 per group, observed 30 minutes for clonic convulsion, read-out: scPTZ (positive number/tested number) (converted); for responders at 100 mg/kg: 100 mg/kg oral; for responders at 50 mg/kg: 50 mg/kg oral
Method in brief: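 Male Slc:ddY mice (20-30 g, 3 per group) dosed orally at 50 or 100 mg/kg; pentetrazol 85 mg/kg given subcutaneously 1 h later. Controls received 0.5% tragacanth or 0.5% methylcellulose vehicle.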

Compound	responders at 100 mg/kg [1]	responders at 100 mg/kg [2]	responders at 50 mg/kg [2]	responders at 50 mg/kg [1]	anticonvulsant action in maximum electroshock seizure (MES) model test ([1]; mice, oral 50 or 100 mg/kg, 1 hour after administration)	anticonvulsant action in subcutaneously pentetrazol-injected model (scPTZ) test ([2]; mice, oral 50 or 100 mg/kg)
NC(=O)Cc1ccc(Cl)cc1-c1ccccc1 [Example 123]	100%	33.3%				
CNC(=O)Cc1ccc(F)cc1-c1ccccc1F [Example 42]	33.3%	66.7%	33.3%			
NC(=O)Cc1ccccc1-c1ccc(Br)cc1 [Example 49, 2-(4′-Bromobiphenyl-2-yl)acetamide]	66.7%	66.7%	0%	0%		
CN(C)C(=O)Cc1ccccc1-c1ccccc1F [Example 30, 2-(2′-fluorobiphenyl-2-yl)-N,N-dimethylacetamide]	100%	66.7%	33.3%	0%		
NC(=O)C(O)c1ccccc1-c1cc(F)ccc1F (centres unmarked) [Example 192]	100%	33.3%				
CN(C)C(=O)Cc1ccccc1-c1ccc(Cl)cc1 [Example 12]	100%	33.3%		0%		
NC(=O)Cc1cc(C(F)(F)F)ccc1-c1ccccc1 [Example 116]	0%	66.7%	33.3%			
NC(=O)Cc1ccccc1-c1cc(Cl)ccc1Cl [Example 95, 2-(2′,5′-dichlorobiphenyl-2-yl)acetamide]	66.7%	100%	0%	33.3%		
CNC(=O)Cc1cc(F)ccc1-c1ccccc1 [Example 45, 2-(4-fluorobiphenyl-2-yl)-N-methylacetamide]	100%	0%		100%		
NC(=O)C(O)c1ccc(F)cc1-c1ccccc1 (centres unmarked) [Example 181, 2-(5-fluorobiphenyl-2-yl)-2-hydroxyacetamide]	100%	66.7%	0%	33.3%		
CC(C)(C)NC(=O)Cc1ccccc1-c1ccccc1F [Example 145]	0%	33.3%				
COC(C(=O)N(C)C)c1ccccc1-c1ccccc1 (centres unmarked) [Example 63, 2-(biphenyl-2-yl)-2-methoxy-N,N-dimethylacetamide]	66.7%	66.7%	33.3%	0%		
CCNC(=O)Cc1cc(Cl)ccc1-c1ccccc1 [Example 37]	0%	33.3%				
CNC(=O)Cc1ccccc1-c1ccccc1F [Example 28, 2-(2′-fluorobiphenyl-2-yl)-N-methylacetamide]	100%	66.7%	0%	0%		
NC(=O)Cc1ccccc1-c1cc(F)ccc1C(F)(F)F [Example 82]	33.3%	100%				
CNC(=O)Cc1cc(C(F)(F)F)ccc1-c1ccc(Cl)cc1 [Example 138]	0%	66.7%				
NC(=O)Cc1ccccc1-c1ccc(F)cc1F [Example 154]	100%	33.3%		33.3%		
NC(=O)C(O)c1ccccc1-c1ccc(Cl)c(C(F)(F)F)c1 (centres unmarked) [Example 195]	100%	33.3%				
NC(=O)Cc1cc(C(F)(F)F)ccc1-c1ccc(Cl)cc1 [Example 137]	0%	66.7%				
NC(=O)Cc1ccc(F)cc1-c1cccc(Cl)c1 [Example 43]	66.7%	66.7%	33.3%	66.7%		
O=C(Cc1ccccc1-c1ccccc1F)NCC1CC1 [Example 173]	33.3%	0%				
NC(=O)C(F)(F)c1ccccc1-c1ccccc1F [Example 169]	100%	33.3%				
CCNC(=O)Cc1ccccc1-c1ccccc1C(F)(F)F [Example 8, N-ethyl-2-[2′-(trilluoromethyl)biphenyl-2-yl]acetamide]	100%	66.7%	0%	0%		
CNC(=O)Cc1cc(F)ccc1-c1cccc(F)c1 [Example 134]	100%	0%				

Compound	responders at 100 mg/kg [1]	responders at 100 mg/kg [2]	responders at 50 mg/kg [2]	responders at 50 mg/kg [1]	anticonvulsant action in maximum electroshock seizure (MES) model test ([1]; mice, oral 50 or 100 mg/kg, 1 hour after administration)	anticonvulsant action in subcutaneously pentetrazol-injected model (scPTZ) test ([2]; mice, oral 50 or 100 mg/kg)
NC(=O)Cc1ccccc1-c1ccccc1C(F)(F)F [Example 6]	100%	33.3%		0%		
CNC(=O)Cc1ccccc1-c1cccc(C(F)(F)F)c1 [Example 5, N-methyl-2-[3′-(trifluoromethyl)biphenyl-2-yl]acetamide]	100%	66.7%	33.3%	0%		
CNC(=O)Cc1ccccc1-c1ccc(C(F)(F)F)cc1F [Example 97]	66.7%	33.3%		33.3%		
CNC(=O)Cc1cc(F)ccc1-c1ccc(C(F)(F)F)cc1 [Example 136]	100%	0%				
NC(=O)Cc1ccc(Cl)cc1-c1ccccc1F [Example 125, 2-(5-chloro-2′-fluorobiphenyl-2-yl)acetamide]	100%	66.7%	33.3%	66.7%		
NC(=O)Cc1cc(Cl)ccc1-c1ccccc1 [Example 35]	66.7%	0%		0%		
NC(=O)Cc1cc(Cl)ccc1-c1cccc(F)c1 [Example 139]	66.7%	33.3%				
NC(=O)Cc1cc(F)ccc1-c1ccc(F)cc1 [Example 114, 2-(4,4′-difluorobiphenyl-2-yl)acetamide]	100%	33.3%		100%		
N#Cc1ccc(Cl)cc1-c1ccccc1CC(N)=O [Example 107]	0%	100%				
NC(=O)Cc1cc(Cl)ccc1-c1ccc(C(F)(F)F)cc1 [Example 142, 2-[4-chloro-4′-(trifluoromethyl)biphenyl-2-yl]acetamide]	66.7%	66.7%	100%	33.3%		
CNC(=O)C(C)c1ccccc1-c1ccccc1 (centres unmarked) [Example 57, 2-(biphenyl-2-yl)-N-methyl propanamide]	66.7%	66.7%	66.7%	66.7%	anticonvulsant action was observed	anticonvulsant action was observed
CNC(=O)Cc1ccccc1-c1cc(F)cc(C(F)(F)F)c1 [Example 102]	0%	66.7%				
CNC(=O)Cc1ccc(F)cc1-c1cccc(F)c1 [Example 121]	100%	33.3%		0%		
CNC(=O)Cc1cc(F)c(F)cc1-c1cccc(F)c1 [Example 148]	0%	33.3%				
CNC(=O)Cc1cc(Cl)ccc1-c1ccc(F)cc1 [Example 130]	100%	0%				
CNC(=O)Cc1ccccc1-c1ccccc1 [Example 54, 2-(biphenyl-2-yl)-N-methylacetamide]	100%	33.3%		100%		
N#Cc1c(-c2ccccc2CC(N)=O)cccc1C(F)(F)F [Example 108]	0%	66.7%				
CCNC(=O)Cc1ccccc1-c1ccccc1Cl [Example 18]	100%	33.3%		0%		
CNC(=O)Cc1ccc(Cl)cc1-c1ccccc1F [Example 126, 2-(5-chloro-2′-fluorobiphenyl-2-yl)-N-methylacetamide]	66.7%	100%	66.7%	0%		
CNC(=O)Cc1ccccc1-c1ccc(F)cc1 [Example 23, 2-(4′-fluorobiphenyl-2-yl)-N-methylacetamide]	100%	33.3%		100%		
NC(=O)Cc1ccccc1-c1ccc(C(F)(F)F)cc1C(F)(F)F [Example 74]	66.7%	33.3%				
CNC(=O)Cc1ccccc1-c1cccc(Br)c1 [Example 55]	100%	0%		0%		
CNC(=O)C(OC)c1ccccc1-c1ccccc1 (centres unmarked) [Example 62, 2-(biphenyl-2-yl)-2-methoxy-N-methylacetamide]	100%	33.3%		66.7%		
